Data set [1] in a line: Particle size and polydispersity index (PDI) of lipid nanoparticles by dynamic light scattering. Type of data set: physicochemical. The following applies: LNP formulation prepared from the cationic lipid, 25° C. The method, then:
The particle size and polydispersity index (PDI) were determined by dynamic light scattering using Malvern laser particle size analyzer.
10 μL of the liposome solution was weighed, diluted to 1 mL with RNase-free deionized water, and added to the sample pool. Each sample was measured in triplicate. The measurement conditions were: […] scattering angle, and 25° C.

Data set [2] relates to 293T cells. The data set can be described thus: Fluorescent detection of Fluc-mRNA (cell transfection efficiency of LNP formulations). Format: cell-based. The following applies: for Relative light unit (RLU): LNP formulation of Fluc-mRNA, 96-well plate, 24 hours; for Multiples (YK-305): RLU of YK-305 / RLU of the lipid of the line; for Multiples (YK-310): RLU of YK-310 / RLU of the lipid of the line; for Multiples (YK-312): RLU of YK-312 / RLU of the lipid of the line; for Multiples (YK-318): RLU of YK-318 / RLU of the lipid of the line; for Multiples (YK-318) / Multiples (YK-319): Tables 5, 7, 11; for Multiples (YK-319): RLU of YK-319 / RLU of the lipid of the line; for Ratio relative to SM-102: RLU of the lipid / RLU of SM-102, times that of SM-102. How it is done:
(§1) Cell recovery and passage: 293T cells were recovered, cultured in a culture dish, and passaged to the required number of cells.
(§2) Seeding plate: The cells in the culture dish were digested and counted. Cells were spread in a 96-well plate at 10,000 cells per well and in a 12-well plate at 150,000 cells per well. Cells were cultured overnight until the cells adhered to the wall.
(§3) Cell recovery and passage: the method was the same as in Example 3.
(§4) Seeding plate: the method was the same as in Example 3.
An LNP formulation containing […] of Fluc-mRNA (the carrier components of the LNP formulation were cationic lipid, neutral lipid, structured lipid and polymer-conjugated lipid with a molar ratio of 49:10:39.5:1.5, wherein the cationic lipid was listed in Table 1) was added to the cell culture medium of a 96-well plate, and further incubated for 24 hours. The corresponding reagent was added according to the instructions of the […] Luciferase Assay Kit, and the fluorescence expression intensity of each well was detected by an IVIS fluorescence detection system. This test verified the transfection efficiencies of LNP formulations in cells, see Tables 4-7 for specific test results.

The test system of data set [3] is 293T cells. The data set can be described thus: Cell survival rate determination (CCK-8). Type of data set: cell-based. The settings on record: LNP formulation of Fluc-mRNA, 24 hours, CCK-8. How it is done:
as §1, §2, §3, §4
An LNP formulation containing […] of Fluc-mRNA (the carrier components of the LNP formulation were cationic lipid, neutral lipid, structured lipid and polymer-conjugated lipid with a molar ratio of 49:10:39.5:1.5, wherein the cationic lipid was listed in Table 1) and the formulation of Lipofectamine 3000 were added to the cell culture medium of a 96-well plate, and further cultivated for 24 hours. 10 μL of CCK-8 solution was then added to each well, and the culture plate was incubated in an incubator for 1 hour. The absorbance at 450 nm was measured by a microplate reader.
Cell survival rate can represent the toxicity of cationic lipids to cells. The higher the cell survival rate, the lower the toxicity to cells.

For a further data set, the system named is female BALB/C mice. Description: Live imaging in mice: protein expression of Fluc-mRNA delivered by LNP formulations. Type of data set: in vivo. How it is done: In addition, the protein expression and duration of mRNA in mice delivered by the cationic lipid delivery carriers designed were also verified.
The LNP formulation containing […] Fluc-mRNA was injected intramuscularly into female BALB/C mice aged 4 to 6 weeks old and weighed 17 to 19 g, and the mice were intraperitoneally injected with fluorescent imaging substrate at specific time points after administration (6 h, 24 h, 48 h and 7 d), where the mice were free to move for 5 minutes, and then the average radiation intensity (corresponding to fluorescence expression intensity) of the protein expression of the mRNA carried by the LNP in the mice was detected by the IVIS Spectrum small animal live imaging device.

The mark [4] stands for this setting: 6 h after intramuscular injection.
[5] abbreviates: 24 h after intramuscular injection.
Setting [6] is: 48 h after intramuscular injection.
Setting [7] is: 7 d after intramuscular injection.

With `CCCCCCCCCCC(CCCCCCCCCC)CCCOC(=O)CCCN(CCCC(=O)OCCCC(CCCCCCCCCC)CCCCCCCCCC)C[C@H](O)CN(CCO)CCO` [YK-321, (S)-bis(4-decyltetradecyl)-4,4′-((3-(bis(2-hydroxyethyl)amino)-2-hydroxypropyl)azanediyl)dibutyrate], in data set [1], the “PDI (%)” value is given as 39.1% and the “Particle size (nm)” value was determined as 182 nm. For the same molecule, in the data set with 293T cells [2], the “Relative light unit (RLU)” value stood at 1403416 RLU, the “Multiples (YK-305)” value is 18.33, the “Multiples (YK-310)” value was found to be 18.38 and the “Multiples (YK-312)” value came out at 14.36. In the data set with 293T cells [2], the “Multiples (YK-318)” value is on record as 7.97, the “Multiples (YK-319)” value is listed as 17.43 and the “Ratio relative to SM-102” value turned out to be 0.87. For the same molecule, the “Cell survival rate (%)” value in the data set on 293T cells [3] worked out at 72.34%. In the data set on female BALB/C mice (setting [4]), the average radiation intensity turned out to be 615600. The molecule further yielded an average radiation intensity in the data set with female BALB/C mice (setting [5]) of 101230. This molecule also gave an average radiation intensity in the data set with female BALB/C mice (setting [6]) of 36565. The molecule further had an average radiation intensity with female BALB/C mice (setting [7]) of 6586.
Consider `CCCCCCCCCCOC(=O)CCCN(CCCCCC(=O)OCCC(CCCCCC)CCCCCC)C[C@H](O)CN(C)CCO` [YK-302], for which, in data set [1], the “PDI (%)” value is 13.4% and the “Particle size (nm)” value is recorded as 186 nm. Further, in the data set with 293T cells [2], the “Relative light unit (RLU)” value turned out to be 27778 RLU, the “Multiples (YK-305)” value worked out at 936.71, the “Multiples (YK-310)” value is reported as 928.69 and the “Multiples (YK-312)” value was 725.34. Moreover, in the data set on 293T cells [2], the “Multiples (YK-318)” value amounted to 402.84 and the “Multiples (YK-319)” value came to 880.83. Further, the “Cell survival rate (%)” value in the data set on 293T cells [3] turned out to be 16.43%. This molecule returned an average radiation intensity in the data set with female BALB/C mice (setting [4]) of 14580. In the data set on female BALB/C mice (setting [5]), this molecule gave an average radiation intensity of 8956. For the same molecule, the average radiation intensity with female BALB/C mice (setting [6]) is listed as 4025. The molecule further displayed an average radiation intensity in the data set with female BALB/C mice (setting [7]) of 884.
For `CCCCCCCCCCC(CCCCCCCCCC)CCCOC(=O)CCCN(CCCC(=O)OCCCC(CCCCCCCCCC)CCCCCCCCCC)C[C@H](O)CN(CC)CCO` [YK-315], in data set [1], the “PDI (%)” value came to 34.9% and the “Particle size (nm)” value worked out at 181 nm. In addition, in the data set on 293T cells [2], the “Relative light unit (RLU)” value was determined as 1587188 RLU, the “Multiples (YK-305)” value is given as 17.27, the “Multiples (YK-310)” value was determined as 16.25 and the “Multiples (YK-312)” value came to 12.69. In addition, in the data set on 293T cells [2], the “Ratio relative to SM-102” value is 0.99. Also, in the data set with 293T cells [3], the “Cell survival rate (%)” value is listed as 71.28%.
As to `CCCCCCCCCCOC(=O)CCCN(CCO)CCCCCC(=O)OCC(CCCCCCCC)CCCCCCCC` [YK-009, reference compound], in data set [1], the “PDI (%)” value is recorded as 18.1% and the “Particle size (nm)” value amounted to 192 nm. Besides, in the data set on 293T cells [2], the “Relative light unit (RLU)” value is recorded as 5118942 RLU, the “Multiples (YK-305)” value turned out to be 5.35, the “Multiples (YK-310)” value came to 5.04 and the “Multiples (YK-312)” value is 3.94. Further, in the data set with 293T cells [2], the “Multiples (YK-318)” value is on record as 2.19, the “Multiples (YK-319)” value came to 4.78 and the “Ratio relative to SM-102” value is on record as 3.19. The “Cell survival rate (%)” value with 293T cells [3] is reported as 72.55%. The molecule also registered an average radiation intensity with female BALB/C mice (setting [4]) of 1004580. In the data set on female BALB/C mice (setting [5]), this molecule gave an average radiation intensity of 754120. In the data set on female BALB/C mice (setting [6]), this molecule gave an average radiation intensity of 110140. This molecule showed an average radiation intensity in the data set with female BALB/C mice (setting [7]) of 9984.
With `CCCCCCC(CCCCCC)CCOC(=O)CCCCCN(CCCCCC(=O)OCCC(CCCCCC)CCCCCC)C[C@H](O)CN(CC)CCO` [YK-311], in data set [1], the “PDI (%)” value worked out at 31.1% and the “Particle size (nm)” value was 209 nm. Further, in the data set on 293T cells [2], the “Relative light unit (RLU)” value stood at 1963636 RLU, the “Multiples (YK-305)” value was determined as 13.96, the “Multiples (YK-310)” value is reported as 13.14 and the “Multiples (YK-312)” value is recorded as 10.26. For the same molecule, the “Ratio relative to SM-102” value in the data set on 293T cells [2] is listed as 1.22. For the same molecule, in the data set on 293T cells [3], the “Cell survival rate (%)” value worked out at 70.06%.
Take `CCCCCCCCC(CCCCCCCC)OC(=O)CCCCCCCN(CCCCCCCC(=O)OC(CCCCCCCC)CCCCCCCC)C[C@H](O)CN(CC)CCO` [YK-314]: in data set [1], the “PDI (%)” value was determined as 24.6% and the “Particle size (nm)” value amounted to 235 nm. Moreover, in the data set on 293T cells [2], the “Relative light unit (RLU)” value came to 547434 RLU, the “Multiples (YK-305)” value amounted to 50.07, the “Multiples (YK-310)” value stood at 47.12 and the “Multiples (YK-312)” value is reported as 36.81. Besides, the “Ratio relative to SM-102” value with 293T cells [2] is 0.34. In addition, in the data set on 293T cells [3], the “Cell survival rate (%)” value was determined as 67.88%.
On to `CCCCCCCCC(CCCCCCCC)COC(=O)CCCCCN(CCCCCC(=O)OCC(CCCCCCCC)CCCCCCCC)C[C@H](O)CN(CCO)CCO` [YK-316, (S)-bis(2-octyldecyl)-6,6′-(((3-(bis(2-hydroxyethyl)amino)-2-hydroxypropyl)azanediyl))dihexanoate], for which, in data set [1], the “PDI (%)” value was found to be 17.5% and the “Particle size (nm)” value is reported as 188 nm. For the same molecule, in the data set on 293T cells [2], the “Relative light unit (RLU)” value is given as 4810210 RLU, the “Multiples (YK-305)” value stood at 5.70, the “Multiples (YK-310)” value came out at 5.36 and the “Multiples (YK-312)” value is on record as 4.19. Moreover, in the data set with 293T cells [2], the “Multiples (YK-318)” value is 2.33, the “Multiples (YK-319)” value was 5.09 and the “Ratio relative to SM-102” value is reported as 3.00. In the data set with 293T cells [3], the “Cell survival rate (%)” value stood at 70.53%.
With `CCCCCCCCC(CCCCCCCC)OC(=O)CCCCCCCN(CCCCCCCC(=O)OC(CCCCCCCC)CCCCCCCC)C[C@H](O)CN(CCO)CCO` [YK-320, (S)-Bis(heptadecan-9-yl)-8,8′-((3-(bis(2-hydroxyethyl)amino)-2-hydroxypropyl)azanediyl)dicaprylate], in data set [1], the “PDI (%)” value was 19.6% and the “Particle size (nm)” value was 212 nm. In addition, in the data set with 293T cells [2], the “Relative light unit (RLU)” value came out at 2702966 RLU, the “Multiples (YK-305)” value is reported as 10.14, the “Multiples (YK-310)” value was 9.54 and the “Multiples (YK-312)” value turned out to be 7.45. In addition, in the data set with 293T cells [2], the “Multiples (YK-318)” value amounted to 4.14, the “Multiples (YK-319)” value turned out to be 9.05 and the “Ratio relative to SM-102” value is 1.69. Further, the “Cell survival rate (%)” value in the data set with 293T cells [3] stood at 71.07%.
Take `CCCCCCCCCCCOC(=O)CCCCCN(CCCCCC(=O)OCCCCCCCCCCC)C[C@H](O)CN(C)CCO` [YK-304, (R)-bis(undecyl)-6,6′-((2-hydroxy-3-((2-hydroxyethyl)(methyl)amino)propyl)azanediyl)dihexanoate]: in data set [1], the “PDI (%)” value is reported as 19.8% and the “Particle size (nm)” value stood at 149 nm. In the data set with 293T cells [2], the “Relative light unit (RLU)” value was found to be 20686 RLU, the “Multiples (YK-305)” value worked out at 1324.99, the “Multiples (YK-310)” value came to 1247.08 and the “Multiples (YK-312)” value is 974.01. Also, in the data set on 293T cells [2], the “Multiples (YK-318)” value is 540.95 and the “Multiples (YK-319)” value was 1182.82. Besides, in the data set on 293T cells [3], the “Cell survival rate (%)” value is reported as 34.16%.
